Columns and labels:
[1] = biological target: Serine/threonine-protein kinase PAK 3 (Homo sapiens) (UniProt O75914); experiment: Inhibition of recombinant full length His-tagged human PAK3 expressed in baculovirus expression system at 10 uM in presence of ATP relative to control
[2] = biological target: cAMP-dependent protein kinase catalytic subunit alpha (Homo sapiens) (UniProt P17612); experiment: Inhibition of recombinant human His-tagged PRKACA expressed in Escherichia coli at 10 uM in presence of ATP relative to control
[3] = biological target: Tyrosine-protein kinase Blk (Homo sapiens) (UniProt P51451); experiment: Inhibition of recombinant full length His-tagged human Blk cytoplasmic domain expressed in Baculovirus expression system at 10 uM in presence of ATP relative to control
Rattus norvegicus [4] = species on record: Rattus norvegicus; experiment: Displacement of [3H]flunitrazepam from rat brain central BZD at 1 uM after 60 mins relative to control
[5] = biological target: Galanin receptor type 2 (Homo sapiens) (UniProt O43603); experiment: Displacement of [125I]-endothelin-1 from human recombinant GAL2 receptor at 1 uM after 120 mins by scintillation counting analysis relative to control
[6] = biological target: T1, Nuclear receptor ROR-gamma (Homo sapiens, UniProt P51449); experiment: Inverse agonist activity at RORgammat in human whole blood assessed as reduction in IL17A production
T1 sequence (P51449 whole entry): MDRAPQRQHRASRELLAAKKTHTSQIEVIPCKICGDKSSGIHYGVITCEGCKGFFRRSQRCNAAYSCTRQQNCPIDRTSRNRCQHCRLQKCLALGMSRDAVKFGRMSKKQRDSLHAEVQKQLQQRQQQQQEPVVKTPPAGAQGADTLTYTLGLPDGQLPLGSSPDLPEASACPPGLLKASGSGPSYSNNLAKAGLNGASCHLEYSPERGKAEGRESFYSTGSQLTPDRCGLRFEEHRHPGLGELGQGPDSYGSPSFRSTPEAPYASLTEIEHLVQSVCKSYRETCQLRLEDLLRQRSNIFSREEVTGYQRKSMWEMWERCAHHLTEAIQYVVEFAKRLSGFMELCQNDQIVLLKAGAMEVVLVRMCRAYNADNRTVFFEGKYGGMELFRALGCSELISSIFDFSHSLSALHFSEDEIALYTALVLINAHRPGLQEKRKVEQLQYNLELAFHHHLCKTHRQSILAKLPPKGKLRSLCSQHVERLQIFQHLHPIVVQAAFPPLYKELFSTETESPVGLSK

Histamine H1 receptor = Histamine H1 receptor (Homo sapiens, UniProt P35367); experiment: Displacement of [3H]pyrilamine from human recombinant histamine H1 receptor after 60 mins by scintillation counting analysis
[7] = biological target: Serine/threonine-protein kinase Chk2 (Homo sapiens) (UniProt O96017); experiment: Inhibition of recombinant full length His-tagged human CHK2 expressed in baculovirus expression system at 10 uM in presence of ATP relative to control
Chain of Serine/threonine-protein kinase Chk2 (Homo sapiens) (O96017 whole entry): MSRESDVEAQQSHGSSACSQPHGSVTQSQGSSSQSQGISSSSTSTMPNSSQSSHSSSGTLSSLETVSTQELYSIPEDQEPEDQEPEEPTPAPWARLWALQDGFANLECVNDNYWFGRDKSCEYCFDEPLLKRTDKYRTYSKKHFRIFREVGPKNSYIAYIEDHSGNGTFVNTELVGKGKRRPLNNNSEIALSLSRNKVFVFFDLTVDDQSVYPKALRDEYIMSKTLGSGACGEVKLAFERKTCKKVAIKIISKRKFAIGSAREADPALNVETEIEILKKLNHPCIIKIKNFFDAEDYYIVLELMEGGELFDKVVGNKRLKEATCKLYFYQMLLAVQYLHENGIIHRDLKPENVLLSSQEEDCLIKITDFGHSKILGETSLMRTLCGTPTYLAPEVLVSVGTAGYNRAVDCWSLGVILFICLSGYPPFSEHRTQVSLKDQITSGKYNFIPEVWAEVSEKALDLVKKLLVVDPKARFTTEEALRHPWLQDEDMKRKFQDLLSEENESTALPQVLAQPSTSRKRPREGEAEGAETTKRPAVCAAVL

[8] = biological target: Vasoactive intestinal polypeptide receptor 1 (Homo sapiens) (UniProt P32241); experiment: Displacement of [125I]VIP from human recombinant VPAC1 receptor at 1 uM after 60 mins by scintillation counting analysis relative to control
Chain of Vasoactive intestinal polypeptide receptor 1 (Homo sapiens) (P32241 whole entry): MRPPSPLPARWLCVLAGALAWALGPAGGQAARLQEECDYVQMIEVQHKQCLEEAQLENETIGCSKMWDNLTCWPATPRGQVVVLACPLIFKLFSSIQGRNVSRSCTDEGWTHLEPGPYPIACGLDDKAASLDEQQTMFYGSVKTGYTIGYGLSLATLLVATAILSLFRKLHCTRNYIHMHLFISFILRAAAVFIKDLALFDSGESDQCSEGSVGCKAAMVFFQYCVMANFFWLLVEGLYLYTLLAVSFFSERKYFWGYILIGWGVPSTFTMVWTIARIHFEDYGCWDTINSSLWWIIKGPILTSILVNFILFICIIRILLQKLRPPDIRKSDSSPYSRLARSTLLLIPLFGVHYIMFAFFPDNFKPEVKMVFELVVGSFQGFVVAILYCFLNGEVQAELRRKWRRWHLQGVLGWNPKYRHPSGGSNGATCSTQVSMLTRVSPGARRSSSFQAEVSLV

Adenosine receptor A1 = Adenosine receptor A1 (Homo sapiens, UniProt P30542); experiment: Displacement of [3H]-DPCPX from human recombinant adenosine A1 receptor after 60 mins by scintillation counting analysis
[9] = biological target: Vasoactive intestinal polypeptide receptor 1 (Homo sapiens) (UniProt P32241); experiment: Displacement of [125I]VIP from human recombinant VPAC1 receptor at 10 uM after 60 mins by scintillation counting analysis relative to control
[10] = biological target: Mitogen-activated protein kinase 13 (Homo sapiens) (UniProt O15264); experiment: Inhibition of recombinant full length His-tagged human p38delta expressed in baculovirus expression system at 10 uM in presence of ATP relative to control
Chain of Mitogen-activated protein kinase 13 (Homo sapiens) (O15264 whole entry): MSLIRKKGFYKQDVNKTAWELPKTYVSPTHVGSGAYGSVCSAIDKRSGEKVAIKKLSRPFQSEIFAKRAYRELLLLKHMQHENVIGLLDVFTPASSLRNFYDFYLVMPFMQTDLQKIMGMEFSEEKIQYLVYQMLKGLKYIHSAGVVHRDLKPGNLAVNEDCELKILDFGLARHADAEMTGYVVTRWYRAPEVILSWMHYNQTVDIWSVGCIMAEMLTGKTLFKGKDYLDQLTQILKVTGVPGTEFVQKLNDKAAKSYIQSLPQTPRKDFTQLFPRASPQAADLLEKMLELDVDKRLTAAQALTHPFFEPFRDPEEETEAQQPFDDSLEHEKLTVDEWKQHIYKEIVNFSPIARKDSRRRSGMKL

[11] = biological target: 5-hydroxytryptamine receptor 3A (Homo sapiens) (UniProt P46098); experiment: Displacement of [3H]BRL 43694 from human recombinant 5-HT3 receptor at 1 uM after 120 mins by scintillation counting analysis relative to control
Chain of 5-hydroxytryptamine receptor 3A (Homo sapiens) (P46098 whole entry): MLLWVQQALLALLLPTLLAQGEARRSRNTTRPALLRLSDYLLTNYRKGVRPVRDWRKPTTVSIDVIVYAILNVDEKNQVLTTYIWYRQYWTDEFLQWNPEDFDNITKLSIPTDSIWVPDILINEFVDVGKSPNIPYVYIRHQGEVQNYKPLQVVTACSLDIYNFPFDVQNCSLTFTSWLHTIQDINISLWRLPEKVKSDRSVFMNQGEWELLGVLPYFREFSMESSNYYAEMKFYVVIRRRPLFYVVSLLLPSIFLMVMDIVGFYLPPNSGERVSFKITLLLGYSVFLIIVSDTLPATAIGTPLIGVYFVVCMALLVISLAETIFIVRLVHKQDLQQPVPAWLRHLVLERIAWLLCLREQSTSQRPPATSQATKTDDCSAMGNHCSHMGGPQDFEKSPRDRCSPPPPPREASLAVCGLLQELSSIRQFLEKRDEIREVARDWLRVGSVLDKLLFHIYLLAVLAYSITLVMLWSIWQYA

[12] = biological target: B2 bradykinin receptor (Homo sapiens) (UniProt P30411); experiment: Displacement of [3H]bradykinin from human recombinant B2 receptor at 1 uM after 60 mins by scintillation counting analysis relative to control
Chain of B2 bradykinin receptor (Homo sapiens) (P30411 whole entry): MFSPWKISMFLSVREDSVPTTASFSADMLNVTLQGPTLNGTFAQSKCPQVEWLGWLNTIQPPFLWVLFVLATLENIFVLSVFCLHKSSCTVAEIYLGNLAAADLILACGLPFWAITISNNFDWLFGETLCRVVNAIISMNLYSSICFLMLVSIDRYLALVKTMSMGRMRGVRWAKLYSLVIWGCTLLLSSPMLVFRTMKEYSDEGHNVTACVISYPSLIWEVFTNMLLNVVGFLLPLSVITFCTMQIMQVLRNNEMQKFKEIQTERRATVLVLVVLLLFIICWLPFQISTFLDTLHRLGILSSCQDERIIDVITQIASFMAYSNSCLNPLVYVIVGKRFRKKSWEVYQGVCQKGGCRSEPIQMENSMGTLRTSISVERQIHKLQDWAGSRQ

[13] = biological target: 5-hydroxytryptamine receptor 2B (Homo sapiens, UniProt P41595); experiment: Displacement of [125I]+/-DOI from human recombinant 5-HT2B receptor at 10 uM after 60 mins by scintillation counting analysis relative to control
Chain of 5-hydroxytryptamine receptor 2B (P41595 whole entry): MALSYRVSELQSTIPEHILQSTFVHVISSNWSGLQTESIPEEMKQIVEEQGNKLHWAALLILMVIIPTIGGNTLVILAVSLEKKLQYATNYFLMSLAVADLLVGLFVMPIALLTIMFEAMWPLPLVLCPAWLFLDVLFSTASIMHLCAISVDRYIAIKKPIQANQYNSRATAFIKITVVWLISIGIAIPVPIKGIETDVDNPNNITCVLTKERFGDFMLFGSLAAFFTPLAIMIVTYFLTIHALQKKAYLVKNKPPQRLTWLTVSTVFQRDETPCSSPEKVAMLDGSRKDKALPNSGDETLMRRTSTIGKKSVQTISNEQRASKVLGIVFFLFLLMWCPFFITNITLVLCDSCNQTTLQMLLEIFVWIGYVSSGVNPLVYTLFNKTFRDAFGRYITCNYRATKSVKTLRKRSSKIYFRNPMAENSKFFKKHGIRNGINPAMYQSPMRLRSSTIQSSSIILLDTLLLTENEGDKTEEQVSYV

[14] = biological target: Type-1 angiotensin II receptor (Homo sapiens, UniProt P30556); experiment: Displacement of [125I][Sar1,Ile8]-AT-II from human recombinant AT1 receptor after 120 mins by scintillation counting analysis
[15] = biological target: T2, Sodium-dependent serotonin transporter (Homo sapiens, UniProt P31645); experiment: Displacement of [3H]-imipramine from recombinant human 5-HT transporter after 60 mins by scintillation counting relative to control
Rattus norvegicus [16] = species on record: Rattus norvegicus; experiment: Displacement of [3H]flunitrazepam from rat brain central BZD at 10 uM after 60 mins relative to control
[17] = biological target: Adrenergic receptor alpha-1 (Rattus norvegicus) (UniProt P15823+P23944+P43140); experiment: Displacement of [3H]-prazosin from rat alpha1 adrenoceptor at 1 uM after 60 mins by scintillation counting analysis relative to control; format: protein assay
[18] = biological target: Beta-1 adrenergic receptor (Homo sapiens, UniProt P08588); experiment: Displacement of [3H](-)CGP 12177 from human beta1 adrenoceptor at 1 uM after 60 mins by scintillation counting analysis relative to control
Chain of Beta-1 adrenergic receptor (P08588 whole entry, looked up): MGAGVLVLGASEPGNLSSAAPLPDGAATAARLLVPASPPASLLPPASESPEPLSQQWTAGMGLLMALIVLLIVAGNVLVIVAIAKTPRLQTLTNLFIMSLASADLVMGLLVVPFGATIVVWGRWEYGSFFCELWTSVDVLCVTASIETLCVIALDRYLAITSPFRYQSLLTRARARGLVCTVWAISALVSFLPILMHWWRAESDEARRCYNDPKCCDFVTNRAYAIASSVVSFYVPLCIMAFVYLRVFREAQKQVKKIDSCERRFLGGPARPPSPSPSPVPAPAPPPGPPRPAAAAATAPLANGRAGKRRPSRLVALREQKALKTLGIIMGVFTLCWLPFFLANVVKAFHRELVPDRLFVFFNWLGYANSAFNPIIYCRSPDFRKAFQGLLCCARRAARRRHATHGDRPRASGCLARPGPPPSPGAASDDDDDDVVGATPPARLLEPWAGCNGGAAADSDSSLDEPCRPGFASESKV

[19] = test system: Casein kinase II subunit alpha' (CSNK2A2); experiment: Inhibition of CK2alpha2 (unknown origin) at 10 uM in presence of ATP relative to control; details: Homo sapiens
[20] = biological target: Aurora kinase A (Homo sapiens) (UniProt O14965); experiment: Inhibition of recombinant full length His-tagged human Aurora A expressed in baculovirus expression system at 10 uM in presence of ATP relative to control
D(2) dopamine receptor = D(2) dopamine receptor (Homo sapiens, UniProt P14416); experiment: Displacement of [3H]7-OH-DPAT from human recombinant dopamine D2S receptor at 10 uM after 60 mins by scintillation counting analysis relative to control
[21] = biological target: Dual specificity protein kinase CLK2 (Homo sapiens) (UniProt P49760); experiment: Inhibition of recombinant GST-tagged human CLK2 catalytic domain (137 to 498 residues) expressed in baculovirus expression system at 10 uM in presence of ATP relative to control
Chain of Dual specificity protein kinase CLK2 (Homo sapiens) (P49760 whole entry, looked up, the tested form may be a part): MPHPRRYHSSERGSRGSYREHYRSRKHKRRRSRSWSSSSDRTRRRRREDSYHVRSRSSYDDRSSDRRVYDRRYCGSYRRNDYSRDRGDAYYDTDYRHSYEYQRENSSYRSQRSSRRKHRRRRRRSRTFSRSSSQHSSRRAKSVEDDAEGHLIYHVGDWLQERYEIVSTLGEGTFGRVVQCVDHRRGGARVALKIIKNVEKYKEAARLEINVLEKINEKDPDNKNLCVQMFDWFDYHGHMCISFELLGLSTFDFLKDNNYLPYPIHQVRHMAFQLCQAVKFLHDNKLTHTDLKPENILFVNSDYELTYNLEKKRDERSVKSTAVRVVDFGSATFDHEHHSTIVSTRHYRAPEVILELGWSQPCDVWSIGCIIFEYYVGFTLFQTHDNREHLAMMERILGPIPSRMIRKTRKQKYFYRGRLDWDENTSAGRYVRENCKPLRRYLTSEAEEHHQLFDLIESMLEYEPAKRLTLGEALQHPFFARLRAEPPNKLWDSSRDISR

[22] = biological target: Endothelin-1 receptor (Homo sapiens) (UniProt P25101); experiment: Displacement of [125I]-endothelin-1 from human recombinant ETA receptor at 1 uM after 120 mins by scintillation counting analysis relative to control
Endothelin-1 receptor = Endothelin-1 receptor (Homo sapiens, UniProt P25101); experiment: Displacement of [125I]-endothelin-1 from human recombinant ETA receptor after 120 mins by scintillation counting analysis
[23] = biological target: T2, Sodium-dependent serotonin transporter; experiment: Displacement of [3H]-imipramine from recombinant human 5-HT transporter at 10 uM after 60 mins by scintillation counting relative to control
Target sequence in this assay (P31645 whole entry, looked up): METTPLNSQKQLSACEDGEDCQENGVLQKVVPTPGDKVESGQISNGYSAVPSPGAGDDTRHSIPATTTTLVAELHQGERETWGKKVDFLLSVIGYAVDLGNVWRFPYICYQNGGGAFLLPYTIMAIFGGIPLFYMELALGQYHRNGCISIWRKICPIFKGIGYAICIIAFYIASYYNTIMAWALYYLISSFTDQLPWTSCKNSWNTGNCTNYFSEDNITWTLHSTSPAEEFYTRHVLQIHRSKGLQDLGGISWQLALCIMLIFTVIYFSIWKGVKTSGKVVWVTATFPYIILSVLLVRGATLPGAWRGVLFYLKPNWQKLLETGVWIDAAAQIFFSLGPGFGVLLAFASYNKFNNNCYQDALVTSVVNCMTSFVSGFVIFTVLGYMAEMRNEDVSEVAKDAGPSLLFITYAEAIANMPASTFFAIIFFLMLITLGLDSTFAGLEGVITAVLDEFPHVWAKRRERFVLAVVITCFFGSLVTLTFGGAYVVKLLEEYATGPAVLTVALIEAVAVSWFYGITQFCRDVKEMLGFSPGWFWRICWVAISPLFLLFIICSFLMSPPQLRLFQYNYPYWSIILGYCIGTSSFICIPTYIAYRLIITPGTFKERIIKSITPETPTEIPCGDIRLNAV

Chain of Serine/threonine-protein kinase PAK 3 (Homo sapiens) (O75914 whole entry, looked up): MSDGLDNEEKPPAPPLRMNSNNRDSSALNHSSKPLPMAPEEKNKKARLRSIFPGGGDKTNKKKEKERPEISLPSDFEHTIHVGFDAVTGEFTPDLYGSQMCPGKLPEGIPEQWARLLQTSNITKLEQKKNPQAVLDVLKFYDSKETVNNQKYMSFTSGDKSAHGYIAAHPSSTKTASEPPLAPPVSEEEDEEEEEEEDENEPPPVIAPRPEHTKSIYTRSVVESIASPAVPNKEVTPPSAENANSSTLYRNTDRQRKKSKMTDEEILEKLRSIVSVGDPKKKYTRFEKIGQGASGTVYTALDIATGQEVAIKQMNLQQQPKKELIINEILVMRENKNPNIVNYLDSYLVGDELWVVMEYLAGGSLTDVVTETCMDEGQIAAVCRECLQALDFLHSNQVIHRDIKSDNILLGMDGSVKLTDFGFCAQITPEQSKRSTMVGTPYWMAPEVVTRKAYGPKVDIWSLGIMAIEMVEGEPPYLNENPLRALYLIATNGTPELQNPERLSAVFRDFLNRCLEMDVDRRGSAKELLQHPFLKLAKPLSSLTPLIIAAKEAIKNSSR

## CC(C)(C)NS(=O)(=O)c1ccc(-c2sc(C(=O)N[C@H]3C[C@H](C(=O)O)C3)nc2CC2CCCCC2)c2ccccc12
[1]
  inhibition: 5%
[2]
  inhibition: -4%
[3]
  inhibition: -5%
Rattus norvegicus [4]
  inhibition: < 10%
[5]
  inhibition: < 10%
[6]
  EC50: 82 nM
Histamine H1 receptor
  IC50: 1.7 nM
[7]
  inhibition: -1%
[8]
  inhibition: < 10%
Adenosine receptor A1
  IC50: 0.61 nM
[9]
  inhibition: < 10%
[10]
  inhibition: -4%
[11]
  inhibition: < 10%
[12]
  inhibition: < 10%
[13]
  inhibition: < 10%
[14]
  IC50: 0.47 nM
[15]
  IC50: 1.7 nM
Rattus norvegicus [16]
  inhibition: < 10%
[17]
  inhibition: < 10%
[18]
  inhibition: < 10%
[19]
  inhibition: 2%
[20]
  inhibition: -5%
D(2) dopamine receptor
  inhibition: 19%
[21]
  inhibition: -1%
[22]
  inhibition: < 10%
Endothelin-1 receptor
  IC50: 0.023 nM
[23]
  inhibition: < 10%
